Test results reported in PubChem BioAssay (NCI).
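Where inhibition never reached the appropriate level, the endpoint shown equals the highest concentration tested. Otherwise, values were interpolated linearly from a five-concentration, 48-hour dose response in 96-well plates. At the GI50, growth is halved. TGI denotes the concentration required for complete inhibition of growth.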

Key:
Experiment in all cases: inhibition of tumour cell growth, NCI panel, 48 h
[1] = system: NCI-H460 lung
[2] = system: CAKI-1 renal
[3] = system: BT-549 breast
[4] = system: UACC-257 melanoma
[5] = system: CCRF-CEM leukemia
[6] = system: U251 CNS
[7] = system: SW-620 colon
[8] = system: HCC-2998 colon
[9] = system: HCT-15 colon
[10] = system: HOP-92 NSCLC
[11] = system: HT29 colon
[12] = system: ACHN renal
[13] = system: MDA-MB-231 breast
[14] = system: A549 NSCLC
[15] = system: MDA-MB-435
[16] = system: SK-MEL-28 melanoma
[17] = system: SR leukemia
[18] = system: MALME-3M melanoma
[19] = system: KM12 colon
[20] = system: SF-268 CNS
[21] = system: SK-MEL-2 melanoma
[22] = system: DU-145 prostate
[23] = system: MCF7 breast
[24] = system: A498 renal
[25] = system: EKVX NSCLC
[26] = system: RXF 393 renal
[27] = system: SK-MEL-5 melanoma
[28] = system: OVCAR-8 ovarian
[29] = system: RPMI-8226 leukemia
[30] = system: OVCAR-3 ovarian
[31] = system: SNB-75 CNS
[32] = system: TK-10 renal
[33] = system: HOP-62 NSCLC
[34] = system: T-47D breast
[35] = system: SNB-19 CNS
[36] = system: NCI-H522 lung
[37] = system: SF-539 CNS
[38] = system: HS 578T breast
[39] = system: UO-31 renal
[40] = system: HL-60(TB) leukemia
[41] = system: SN12C renal
[42] = system: NCI-H23 lung
[43] = system: COLO 205 colon
[44] = system: OVCAR-5 ovarian
[45] = system: LOX IMVI melanoma
[46] = system: OVCAR-4 ovarian
[47] = system: K-562 leukemia
[48] = system: MOLT-4 leukemia
[49] = system: M14 melanoma
[50] = system: IGROV1 ovarian
[51] = system: UACC-62 melanoma
[52] = system: PC-3 prostate
[53] = system: SF-295 CNS
[54] = system: SK-OV-3 ovarian
[55] = system: HCT-116 colon
[56] = system: 786-0 renal
[57] = system: NCI-H226 lung
[58] = system: NCI/ADR-RES ovarian

For `CN(C)c1ccc(/C=N/S(=O)(=O)c2ccc(-n3c(-c4ccccc4)nc4c(Br)cc(Br)cc4c3=O)cc2)cc1`, the GI50 [1] was 28.5 µM, the TGI [1] was > 100 µM and the GI50 [2] was 47.5 µM. The TGI [2] was > 100 µM, the GI50 [3] was 30.6 µM and the TGI [3] was > 68.8 µM. The GI50 [4] was 44.6 µM, the TGI [4] was > 100 µM and the GI50 [5] was 3.22 µM. The TGI [5] was > 100 µM, the GI50 [6] was 40.7 µM and the TGI [6] was > 100 µM. The GI50 [7] was 46.2 µM, the TGI [7] was > 100 µM and the GI50 [8] was 51.2 µM. The TGI [8] was > 100 µM, the GI50 [9] was 51.1 µM and the TGI [9] was > 100 µM. The GI50 [10] was 22.7 µM, the TGI [10] was 71.6 µM and the GI50 [11] was 42.5 µM. The TGI [11] was > 100 µM, the GI50 [12] was 40.4 µM and the TGI [12] was > 100 µM. For the same compound, the GI50 [13] was 44 µM, the TGI [13] was > 100 µM and the GI50 [14] was 34 µM. For the same compound, the TGI [14] was > 100 µM, the GI50 [15] was 42 µM and the TGI [15] was > 90.7 µM. The GI50 [16] was 43.6 µM, the TGI [16] was > 100 µM and the GI50 [17] was 1 µM. The TGI [17] was 14.9 µM, the GI50 [18] was 47.2 µM and the TGI [18] was > 89.7 µM. The GI50 [19] was 32.3 µM, the TGI [19] was > 100 µM and the GI50 [20] was 48.5 µM. For the same compound, the TGI [20] was > 100 µM, the GI50 [21] was 23.6 µM and the TGI [21] was > 96.1 µM. For the same compound, the GI50 [22] was 32.6 µM, the TGI [22] was > 90.2 µM and the GI50 [23] was 28.8 µM. For the same compound, the TGI [23] was > 78 µM, the GI50 [24] was 32.5 µM and the TGI [24] was > 93.7 µM. It also gave a GI50 [25] of 27.6 µM, a TGI [25] of 91.6 µM and a GI50 [26] of 50.2 µM. For the same compound, the TGI [26] was > 100 µM, the GI50 [27] was 15.3 µM and the TGI [27] was 38.3 µM. The GI50 [28] was 34.2 µM, the TGI [28] was > 100 µM and the GI50 [29] was 4.27 µM. The TGI [29] was > 96.4 µM, the GI50 [30] was 34.2 µM and the TGI [30] was > 100 µM. For the same compound, the GI50 [31] was 24.7 µM, the TGI [31] was 71.3 µM and the GI50 [32] was 45.8 µM. For the same compound, the TGI [32] was > 100 µM, the GI50 [33] was 47.7 µM and the TGI [33] was > 100 µM. For the same compound, the GI50 [34] was 24.5 µM, the TGI [34] was 88 µM and the GI50 [35] was 51.2 µM. For the same compound, the TGI [35] was > 100 µM, the GI50 [36] was 32.2 µM and the TGI [36] was > 97 µM. The GI50 [37] was 44.4 µM, the TGI [37] was > 91.8 µM and the GI50 [38] was 32.6 µM. For the same compound, the TGI [38] was > 92.1 µM, the GI50 [39] was 32.6 µM and the TGI [39] was > 100 µM. It also gave a GI50 [40] of 34.4 µM, a TGI [40] of 84.2 µM and a GI50 [41] of 43.4 µM. The TGI [41] was > 100 µM, the GI50 [42] was 37.7 µM and the TGI [42] was 92.6 µM. The GI50 [43] was 44.9 µM, the TGI [43] was > 100 µM and the GI50 [44] was > 69.5 µM. The TGI [44] was > 100 µM, the GI50 [45] was 46.1 µM and the TGI [45] was > 100 µM. The GI50 [46] was 30.3 µM, the TGI [46] was 97.3 µM and the GI50 [47] was 31.3 µM. For the same compound, the TGI [47] was > 86.5 µM, the GI50 [48] was 33.3 µM and the TGI [48] was > 80.5 µM. The GI50 [49] was 31.1 µM, the TGI [49] was > 93.5 µM and the GI50 [50] was 25.6 µM. The TGI [50] was > 100 µM, the GI50 [51] was 28.3 µM and the TGI [51] was > 92.8 µM. For the same compound, the GI50 [52] was 35.3 µM, the TGI [52] was > 88 µM and the GI50 [53] was 35.5 µM. The TGI [53] was > 100 µM, the GI50 [54] was 47.2 µM and the TGI [54] was > 100 µM. For the same compound, the GI50 [55] was 33.2 µM, the TGI [55] was > 100 µM and the GI50 [56] was 55.7 µM. The TGI [56] was > 100 µM, the GI50 [57] was 53.8 µM and the TGI [57] was > 100 µM. For the same compound, the GI50 [58] was 44.6 µM and the TGI [58] was > 100 µM.
